Reference: publication PMC4506051, “Pharmacokinetic Profiles of Active Ingredients and Its Metabolites Derived from Rikkunshito, a Ghrelin Enhancer, in Healthy Japanese Volunteers: A Cross-Over, Randomized Study” (PLoS ONE, 2015)

How the values were obtained:
[1] = Dose proportionality (linearity) test by power model for C max and AUC0-last; conditions: for Dose proportionality test using power model, Inference: linear when 90% CI of β included 1, CIlower ≥0.8, and CIupper ≤1.25; for Dose proportionality test using power model, β: rikkunshito 2.5, 5.0 or 7.5 g
Procedure: The dose proportionality was analyzed via a power model [21, 22]. […] Evaluation of linearity of the dosage-exposure relationship was conducted with Phoenix WinNonlin and SAS 9.2 (SAS Institute, Inc., Cary, NC).

[2] = Method validation: freeze-thaw stability in plasma; conditions: −30°C to −10°C, 3 cycles
[3] = Stability of ingredients in gastric pH solution (pH 1.2, 37°C); type: physicochemical; conditions: rikkunshito in acidic solution (pH 1.2) at 37°C
Procedure: Rikkunshito gradually dissolved in acidic solution (pH 1.2) at 37°C, and the concentration of atractylodin after adding 0.25, 0.5, 1, and 2 h was measured by gas chromatography–mass spectrometry.

[4] = Randomized crossover quantitative trial: plasma pharmacokinetics of nine ingredients after rikkunshito 2.5, 5.0 or 7.5 g; conditions: for AUC(0-t): AUC0-last; for Cmax: C max
In short: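 Plasma concentrations of ingredients were measured by LC–MS/MS or GC–MS in samples taken from pre-dose to 48 h. Dosing was a single oral rikkunshito dose (2.5, 5.0 or 7.5 g; three-arm randomized crossover) in fasted healthy Japanese volunteers aged 20–45.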

[5] = Method validation: stability in blood
[6] = Method validation: post-preparative stability (autosampler); conditions: autosampler set at 4°C
[7] = 7.5 g dosage; cited from earlier work
[8] = Method validation: long-term stability in plasma
[9] = Method validation: short-term stability in plasma
[10] = human, in vivo, po, rikkunshito 2.5 g single oral, n = 21, geometric mean (95% CI)
[11] = human, in vivo, po, rikkunshito 5.0 g single oral, n = 19, geometric mean (95% CI)
[12] = human, in vivo, po, rikkunshito 7.5 g single oral, n = 19, geometric mean (95% CI)

What does the source list for `C=C(CC[C@@H](C(=O)O)[C@H]1[C@H](O)C[C@@]2(C)C3=C(CC[C@]12C)[C@@]1(C)CC[C@H](OC(C)=O)C(C)(C)[C@@H]1CC3)C(C)C` [Pachymic acid]?
Dose proportionality test using power model, Inference ([1]; AUC0-last): Nonlinear; Dose proportionality test using power model, β ([1]; AUC0-last): 1.39; Dose proportionality test using power model, Inference ([1]; Cmax): Nonlinear; Dose proportionality test using power model, β ([1]; Cmax): 0.856; Freeze-thaw stability, RR ([2]; higher concentration (800 / 320 / 4000 pg/mL)): 114.0%; Freeze-thaw stability, RR ([2]; lower concentration (20 / 8 / 100 pg/mL)): 108.8%; Stability in gastric pH solution, Quantitative value ([3]; 0.5 h): 40.2 ng/mL; Stability in gastric pH solution, Quantitative value ([3]; 1 h): 46.5 ng/mL; Stability in gastric pH solution, Quantitative value ([3]; 2 h): 28.3 ng/mL; Plasma concentration just before the administration ([4]; all subjects, quantitative trial): BQL; AUC(0-t) [4, 10]: 0.277 ng·h/mL; AUC(0-t) [4, 11]: 0.716 ng·h/mL; AUC(0-t) [4, 12]: 1.21 ng·h/mL; Cmax [4, 10]: 0.0363 ng/mL; Cmax [4, 11]: 0.0612 ng/mL; Cmax [4, 12]: 0.091 ng/mL; Tmax ([4]; human, in vivo, po, Median t max (range), rikkunshito 2.5 g single oral, n = 21, median (minimum–maximum)): 6 h; Tmax ([4]; human, in vivo, po, Median t max (range), rikkunshito 5.0 g single oral, n = 19, median (minimum–maximum)): 6 h; Tmax ([4]; human, in vivo, po, Median t max (range), rikkunshito 7.5 g single oral, n = 19, median (minimum–maximum)): > 3 h; half-life ([4]; human, in vivo, po, t 1/2, rikkunshito 5.0 g single oral, n = 19, geometric mean (95% CI)): 16.2 h; Tmax ([4]; human, in vivo, t max, after rikkunshito administration, dose not given): 6 h; t 1/2 ([4]; rikkunshito 7.5 g single oral, n = 19, geometric mean (95% CI)): 20.5 (14.4–29.2) h; t 1/2 ([4]; rikkunshito 7.5 g single oral, n = 19, geometric mean (95% CI), listed as pachymic acid): exceeding 10 h; Median t max (range) ([4]; rikkunshito 7.5 g single oral, n = 19, median (minimum–maximum)): 6.00 (2.00–11.5) h; Stability in blood, RR ([5]; on ice 2 h, higher concentration (800 / 320 / 4000 pg/mL)): 93.4%; Stability in blood, RR ([5]; on ice 2 h, lower concentration (20 / 8 / 100 pg/mL)): 103.1%; Stability in blood, RR ([5]; room temperature 2 h, higher concentration (pachymic acid 800, heptamethoxyflavone 320, naringenin 4000 pg/mL)): 91.8%; Stability in blood, RR ([5]; room temperature 2 h, lower concentration (pachymic acid 20, heptamethoxyflavone 8, naringenin 100 pg/mL)): 103.1%; Post-preparative stability, RR ([6]; 24 h, higher concentration (pachymic acid 800, heptamethoxyflavone 320 pg/mL)): 88.4%; Post-preparative stability, RR ([6]; 24 h, lower concentration (pachymic acid 20, heptamethoxyflavone 8 pg/mL)): 92.4%; Post-preparative stability, RR ([6]; 48 h, higher concentration (800 / 320 / 4000 pg/mL)): 98.2%; Post-preparative stability, RR ([6]; 48 h, lower concentration (20 / 8 / 100 pg/mL)): 93.8%; Maximum plasma concentration in the preliminary pharmacokinetics study [7]: 0.228 ± 0.116 ng/mL; Long-term stability, RR ([8]; freezer −30°C to −10°C, 13 days, lower concentration (pachymic acid 20, heptamethoxyflavone 8 pg/mL)): 110.9%; Long-term stability, RR ([8]; freezer, 13 days, higher concentration (pachymic acid 800, heptamethoxyflavone 320 pg/mL)): 113.9%; Long-term stability, RR ([8]; freezer, 39 days, higher concentration (800 / 320 pg/mL)): 107.6%; Long-term stability, RR ([8]; freezer, 39 days, lower concentration (20 / 8 pg/mL)): 104.1%; Long-term stability, RR ([8]; freezer, 228 days, higher concentration (800 / 320 pg/mL)): 92.5%; Long-term stability, RR ([8]; freezer, 228 days, lower concentration (20 / 8 pg/mL)): 89.6%; Short-term stability, RR ([9]; room temperature 25 h, higher concentration (pachymic acid 800, heptamethoxyflavone 320 pg/mL)): 93.8%; Short-term stability, RR ([9]; room temperature 25 h, lower concentration (pachymic acid 20, heptamethoxyflavone 8 pg/mL)): 85.9%; Short-term stability, RR ([9]; room temperature (1°C to 30°C) 4 h, higher concentration (800 / 320 / 4000 pg/mL)): 95.1%; Short-term stability, RR ([9]; room temperature (1°C to 30°C) 4 h, lower concentration (20 / 8 / 100 pg/mL)): 95.8%
